Consider 13 compounds from ChEMBL document CHEMBL5120899, “Sesquiterpene Lactones from Vernonia tufnelliae: Structural Characterization and Biological Evaluation” (J Nat Prod, 2022).

Each structure is given as a SMILES string. pIC50: −log10 of the molar value. Where only a bound is given, the exact number is not on record here.

The experiment deals with HeLa S3. Nature of the experiment: Cytotoxicity against human HeLa S3 cells assessed as cell viability incubated for 48 hrs by microscopic analysis. The format is functional, cell-based. Particulars: HeLa S3, 48 h.
Regarding `C=C[C@@]1(C)C[C@@H](OC(=O)C(=C)CO)[C@H](C(=C)C(=O)OC/C2=C\[C@H]3OC(=O)C(=C)[C@@H]3[C@@H](OC(=O)C(=C)CO)C/C(C)=C/CC2)[C@@H](O)[C@@H]1C(=C)CO`, the pIC50 (commonly the negative decadic logarithm of the IC50, by convention in mol/L) is below 5.00.

Turning to `COc1cc2oc(-c3ccc(O)c(O)c3)cc(=O)c2c(O)c1O`, the pIC50 is below 5.00.

In the case of `O=Cc1c[nH]c2ccccc12` [3-FORMYLINDOLE], the pIC50 was below 5.00.

On to `C=C(CO)C(=O)O[C@H]1C/C(C)=C/CC/C(CO)=C/[C@H]2OC(=O)[C@@H](CN[C@H](CC(C)C)C(=O)O)[C@H]12`, for which the negative logarithm of the IC50 (pIC50) is below 5.00.

In the case of `Oc1ccc(Cc2ccccc2O)cc1`, the pIC50 is below 5.00.

Turning to `O=c1cc(-c2ccc(O)cc2)oc2cc(O[C@@H]3O[C@H](CO)[C@@H](O)[C@H](O)[C@H]3O)cc(O)c12` [APIGETRIN], the pIC50 was below 5.00.

Take `C=C(CO)C(=O)O[C@H]1C/C(C)=C/CC/C(CO)=C/[C@H]2OC(=O)[C@@H](CN[C@@H](C(=O)O)C(C)C)[C@H]12`: the negative logarithm of the IC50 (pIC50) is below 5.00.

Take `O=c1cc(-c2ccc(O)cc2)oc2cc(O)cc(O)c12` [APIGENIN]: the pIC50 is below 5.00.

Turning to `C=C(CO)C(=O)O[C@H]1C/C(C)=C/CC/C(CO)=C/[C@H]2OC(=O)[C@@H](CN[C@H](Cc3ccccc3)C(=O)O)[C@H]12`, the pIC50 was below 5.00.

As for `Oc1ccc(Cc2ccc(O)cc2)cc1`, the pIC50 is below 5.00.

With `O=c1cc(-c2ccc(O)c(O)c2)oc2cc(O[C@@H]3O[C@H](CO)[C@@H](O)[C@H](O)[C@H]3O)cc(O)c12` [GALUTEOLIN], the pIC50 was below 5.00.

Regarding `C=C(CO)C(=O)O[C@H]1C/C(C)=C/CC/C(CO)=C/[C@H]2OC(=O)C(=C)[C@H]12`, the pIC50 is below 5.00.

Take `C=C(CO)C(=O)O[C@H]1C/C(C)=C/CC/C(CO)=C/[C@H]2OC(=O)[C@@H](CN3C[C@@H](CO)[C@]4(O)O[C@H]5C/C(C)=C/CC/C(CO)=C/[C@H]6OC(=O)[C@]4(C3)[C@H]56)[C@H]12`: the negative-log IC50 (pIC50) is below 5.00.
